Where a name gives a salt, the structure may show the parent alone.
Tests used:
[1] = target: ATP-binding cassette sub-family C member 2 (Homo sapiens, UniProt Q92887); test: Inhibition of human MRP2 overexpressed in Sf9 cell membrane vesicles assessed as uptake of [3H]-estradiol-17beta-D-glucuronide in presence of ATP and GSH measured after 20 mins by membrane vesicle transport assay
[2] = target: T1, ATP-binding cassette sub-family C member 4 (Homo sapiens, UniProt O15439); test: Inhibition of human MRP4 overexpressed in Sf9 cell membrane vesicles assessed as uptake of [3H]-estradiol-17beta-D-glucuronide in presence of ATP and GSH measured after 20 mins by membrane vesicle transport assay; assay type: ADME, cell-based
T1 sequence (O15439 whole entry): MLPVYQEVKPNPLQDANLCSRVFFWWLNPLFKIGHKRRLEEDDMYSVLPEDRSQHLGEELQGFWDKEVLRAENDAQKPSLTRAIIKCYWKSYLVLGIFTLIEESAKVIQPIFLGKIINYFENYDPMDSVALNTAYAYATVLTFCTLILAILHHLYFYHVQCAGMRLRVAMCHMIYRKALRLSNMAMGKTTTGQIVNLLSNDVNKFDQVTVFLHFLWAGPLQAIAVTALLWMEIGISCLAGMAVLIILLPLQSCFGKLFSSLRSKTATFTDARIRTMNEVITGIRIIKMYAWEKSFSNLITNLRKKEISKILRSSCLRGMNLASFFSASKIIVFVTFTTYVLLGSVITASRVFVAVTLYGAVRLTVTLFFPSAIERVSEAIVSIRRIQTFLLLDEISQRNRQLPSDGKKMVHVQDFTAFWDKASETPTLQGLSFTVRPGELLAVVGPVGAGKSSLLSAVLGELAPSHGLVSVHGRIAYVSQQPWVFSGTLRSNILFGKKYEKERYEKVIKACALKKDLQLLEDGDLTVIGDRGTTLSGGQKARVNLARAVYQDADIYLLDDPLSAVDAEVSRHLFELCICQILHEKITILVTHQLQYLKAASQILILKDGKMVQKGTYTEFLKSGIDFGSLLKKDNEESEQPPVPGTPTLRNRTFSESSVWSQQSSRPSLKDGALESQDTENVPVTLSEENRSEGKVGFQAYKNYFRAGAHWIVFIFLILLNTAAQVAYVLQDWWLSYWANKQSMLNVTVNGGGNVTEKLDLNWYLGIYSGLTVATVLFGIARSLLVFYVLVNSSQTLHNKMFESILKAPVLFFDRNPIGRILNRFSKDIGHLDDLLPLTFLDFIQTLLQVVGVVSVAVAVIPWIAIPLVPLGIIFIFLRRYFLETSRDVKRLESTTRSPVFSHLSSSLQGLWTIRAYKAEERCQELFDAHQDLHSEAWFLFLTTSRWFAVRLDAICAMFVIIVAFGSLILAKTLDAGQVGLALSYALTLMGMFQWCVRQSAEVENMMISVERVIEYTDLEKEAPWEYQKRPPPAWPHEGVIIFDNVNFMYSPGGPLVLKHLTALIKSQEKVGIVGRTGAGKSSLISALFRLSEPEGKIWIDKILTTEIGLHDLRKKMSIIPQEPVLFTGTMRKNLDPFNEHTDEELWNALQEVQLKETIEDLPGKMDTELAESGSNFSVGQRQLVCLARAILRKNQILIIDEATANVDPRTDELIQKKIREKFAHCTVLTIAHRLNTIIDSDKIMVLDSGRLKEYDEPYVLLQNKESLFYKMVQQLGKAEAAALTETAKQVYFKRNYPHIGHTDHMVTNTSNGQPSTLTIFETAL

[3] = target: ATP-binding cassette sub-family C member 3 (Homo sapiens, UniProt O15438); test: Inhibition of human MRP3 overexpressed in Sf9 insect cell membrane vesicles assessed as uptake of [3H]-estradiol-17beta-D-glucuronide in presence of ATP and GSH measured after 10 mins by membrane vesicle transport assay; assay type: ADME, cell-based
Sequence of ATP-binding cassette sub-family C member 3 (O15438 whole entry): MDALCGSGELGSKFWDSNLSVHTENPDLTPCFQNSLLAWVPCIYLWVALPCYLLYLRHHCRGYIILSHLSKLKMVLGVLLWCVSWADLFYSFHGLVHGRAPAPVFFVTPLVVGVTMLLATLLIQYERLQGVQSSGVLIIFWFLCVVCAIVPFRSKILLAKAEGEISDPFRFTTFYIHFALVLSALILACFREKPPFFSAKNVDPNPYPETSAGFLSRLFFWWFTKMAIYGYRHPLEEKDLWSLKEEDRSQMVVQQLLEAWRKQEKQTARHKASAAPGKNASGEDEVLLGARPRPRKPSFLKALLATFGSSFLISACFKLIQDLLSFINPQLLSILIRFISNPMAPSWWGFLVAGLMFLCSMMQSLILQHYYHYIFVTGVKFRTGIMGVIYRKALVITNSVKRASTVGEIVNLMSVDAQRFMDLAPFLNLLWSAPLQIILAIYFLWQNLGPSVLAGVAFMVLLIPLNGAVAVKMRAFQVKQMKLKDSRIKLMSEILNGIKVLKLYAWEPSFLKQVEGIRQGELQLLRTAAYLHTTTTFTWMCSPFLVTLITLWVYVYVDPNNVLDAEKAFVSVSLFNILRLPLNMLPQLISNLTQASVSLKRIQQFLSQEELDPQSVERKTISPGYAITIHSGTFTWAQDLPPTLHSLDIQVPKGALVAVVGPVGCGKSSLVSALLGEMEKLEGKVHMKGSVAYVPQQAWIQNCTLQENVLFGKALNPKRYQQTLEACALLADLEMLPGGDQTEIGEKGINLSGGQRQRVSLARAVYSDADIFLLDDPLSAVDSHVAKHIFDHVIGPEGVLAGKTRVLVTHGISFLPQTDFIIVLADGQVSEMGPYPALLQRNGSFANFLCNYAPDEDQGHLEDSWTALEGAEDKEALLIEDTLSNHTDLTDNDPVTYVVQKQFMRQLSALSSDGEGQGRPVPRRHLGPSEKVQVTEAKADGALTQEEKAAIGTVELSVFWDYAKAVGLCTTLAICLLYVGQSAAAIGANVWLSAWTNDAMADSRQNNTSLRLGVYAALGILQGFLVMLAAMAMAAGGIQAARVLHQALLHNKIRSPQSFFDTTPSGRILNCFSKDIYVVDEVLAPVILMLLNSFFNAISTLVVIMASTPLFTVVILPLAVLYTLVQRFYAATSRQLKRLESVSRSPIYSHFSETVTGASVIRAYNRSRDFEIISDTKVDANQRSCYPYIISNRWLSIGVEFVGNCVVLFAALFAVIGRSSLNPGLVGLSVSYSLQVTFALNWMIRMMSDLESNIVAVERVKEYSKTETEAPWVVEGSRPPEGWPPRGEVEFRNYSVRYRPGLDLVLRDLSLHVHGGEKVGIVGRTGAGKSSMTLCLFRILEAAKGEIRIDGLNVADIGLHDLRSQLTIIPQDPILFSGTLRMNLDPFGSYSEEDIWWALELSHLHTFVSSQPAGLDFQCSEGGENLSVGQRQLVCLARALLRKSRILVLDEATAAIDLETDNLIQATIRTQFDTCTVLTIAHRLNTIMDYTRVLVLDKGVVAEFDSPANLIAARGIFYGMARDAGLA

Sequence of ATP-binding cassette sub-family C member 2 (Q92887 whole entry): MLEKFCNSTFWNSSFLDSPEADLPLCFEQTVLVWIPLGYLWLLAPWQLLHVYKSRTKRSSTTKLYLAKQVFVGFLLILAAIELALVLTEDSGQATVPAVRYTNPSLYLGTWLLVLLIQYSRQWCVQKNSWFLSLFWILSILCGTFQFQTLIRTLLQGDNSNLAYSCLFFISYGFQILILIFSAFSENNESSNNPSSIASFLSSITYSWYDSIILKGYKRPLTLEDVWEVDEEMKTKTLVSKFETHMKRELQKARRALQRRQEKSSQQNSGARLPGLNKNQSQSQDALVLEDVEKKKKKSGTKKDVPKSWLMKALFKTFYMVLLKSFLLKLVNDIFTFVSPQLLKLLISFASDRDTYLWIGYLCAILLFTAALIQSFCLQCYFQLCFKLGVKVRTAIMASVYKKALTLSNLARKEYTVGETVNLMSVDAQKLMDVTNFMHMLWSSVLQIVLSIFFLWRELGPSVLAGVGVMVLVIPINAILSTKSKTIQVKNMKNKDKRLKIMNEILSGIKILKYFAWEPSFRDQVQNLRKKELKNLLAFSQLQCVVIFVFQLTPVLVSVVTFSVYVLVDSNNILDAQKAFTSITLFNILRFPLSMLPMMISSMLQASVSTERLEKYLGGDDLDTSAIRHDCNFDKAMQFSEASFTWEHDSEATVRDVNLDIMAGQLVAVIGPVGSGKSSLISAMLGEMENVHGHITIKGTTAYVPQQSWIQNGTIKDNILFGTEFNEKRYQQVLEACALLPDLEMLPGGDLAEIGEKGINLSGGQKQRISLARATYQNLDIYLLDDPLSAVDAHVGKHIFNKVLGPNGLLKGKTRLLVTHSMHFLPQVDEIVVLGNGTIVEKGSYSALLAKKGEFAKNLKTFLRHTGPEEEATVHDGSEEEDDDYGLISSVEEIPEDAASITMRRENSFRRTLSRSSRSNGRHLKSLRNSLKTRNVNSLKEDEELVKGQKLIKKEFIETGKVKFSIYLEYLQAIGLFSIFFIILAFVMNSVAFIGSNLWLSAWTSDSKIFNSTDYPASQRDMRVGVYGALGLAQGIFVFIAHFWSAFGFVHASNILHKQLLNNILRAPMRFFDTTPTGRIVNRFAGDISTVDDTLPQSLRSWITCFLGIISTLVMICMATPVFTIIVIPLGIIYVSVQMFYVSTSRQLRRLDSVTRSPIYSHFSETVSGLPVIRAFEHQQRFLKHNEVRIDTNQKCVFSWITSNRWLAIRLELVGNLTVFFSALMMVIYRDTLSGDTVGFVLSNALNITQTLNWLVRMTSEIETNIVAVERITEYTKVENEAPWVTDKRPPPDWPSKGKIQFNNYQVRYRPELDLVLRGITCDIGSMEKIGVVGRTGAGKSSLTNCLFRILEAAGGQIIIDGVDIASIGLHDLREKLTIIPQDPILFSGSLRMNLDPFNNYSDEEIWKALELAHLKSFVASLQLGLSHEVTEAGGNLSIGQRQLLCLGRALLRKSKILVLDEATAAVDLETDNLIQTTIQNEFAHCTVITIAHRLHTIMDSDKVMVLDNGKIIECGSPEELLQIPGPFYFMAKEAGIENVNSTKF

Compound | IC50 [1] | IC50 [2] | IC50 [3]
CN(C)CCCN1c2ccccc2CCc2ccccc21 [IMIPRAMINE] | > 133 µM | > 133 µM | > 133 µM
CNCCC(Oc1ccc(C(F)(F)F)cc1)c1ccccc1 (configuration not stated) [FLUOXETINE] | > 133 µM | > 133 µM | > 133 µM
CN(C)CC[C@@H](c1ccc(Br)cc1)c1ccccn1 [DEXBROMPHENIRAMINE MALEATE] | > 133 µM | > 133 µM | > 133 µM
COCCCC/C(=N\OCCN)c1ccc(C(F)(F)F)cc1 [FLUVOXAMINE MALEATE] | > 133 µM | > 133 µM | > 133 µM
CC1(COc2ccc(CC3SC(=O)NC3=O)cc2)CCCCC1 (configuration not stated) [CIGLITAZONE] | > 133 µM | > 133 µM | > 133 µM
OC(Cn1cncn1)(Cn1cncn1)c1ccc(F)cc1F [FLUCONAZOLE] | > 133 µM | > 133 µM | > 133 µM
CC[C@H]1OC(=O)[C@H](C)[C@@H](O[C@H]2C[C@@](C)(OC)[C@@H](O)[C@H](C)O2)[C@H](C)[C@@H](O[C@@H]2O[C@H](C)C[C@H](N(C)C)[C@H]2O)[C@](C)(O)C[C@@H](C)C(=O)[C@H](C)[C@@H](O)[C@]1(C)O [ERYTHROMYCIN] | > 133 µM | > 133 µM | > 133 µM
CCN(CC)C(=S)SSC(=S)N(CC)CC | > 133 µM | > 133 µM | > 133 µM
C[C@]12CC[C@H]3[C@@H](CCC4=CC(=O)CC[C@@]43C)[C@@H]1CC[C@@H]2O [TESTOSTERONE] | > 133 µM | > 133 µM | > 133 µM
C[C@@H](O)[C@H]1C(=O)N2C(C(=O)O)=C(S[C@@H]3CN[C@H](CNS(N)(=O)=O)C3)[C@H](C)[C@H]12 [DORIPENEM] | > 133 µM | > 133 µM | > 133 µM
CN(C)[C@@H]1C(O)=C(C(N)=O)C(=O)[C@@]2(O)C(O)=C3C(=O)c4c(O)cccc4[C@@](C)(O)[C@H]3C[C@@H]12 [TETRACYCLINE] | > 133 µM | > 133 µM | > 133 µM
CC(C)NCC(O)COc1cccc2ccccc12 (configuration not stated) [PROPRANOLOL] | > 133 µM | > 133 µM | > 133 µM
COC[C@H]1OC(=O)c2coc3c2[C@@]1(C)C1=C(C3=O)[C@@H]2CCC(=O)[C@@]2(C)C[C@H]1OC(C)=O [WORTMANNIN] | 46.1 µM | 63.2 µM | > 133 µM
CN(C)CCC=C1c2ccccc2COc2ccccc21 [DOXEPIN] | > 133 µM | > 133 µM | > 133 µM
C#C[C@@]1(O)CC[C@H]2[C@@H]3CCC4=CC(=O)CC[C@@H]4[C@H]3CC[C@@]21C | > 133 µM | > 133 µM | > 133 µM
C=C(c1ccc(C(=O)O)cc1)c1cc2c(cc1C)C(C)(C)CCC2(C)C [BEXAROTENE] | > 133 µM | > 133 µM | > 133 µM
Nc1ccn([C@@H]2CS[C@H](CO)O2)c(=O)n1 [LAMIVUDINE] | > 133 µM | > 133 µM | > 133 µM
Clc1ccccc1CN1CCc2sccc2C1 [TICLOPIDINE HYDROCHLORIDE] | > 133 µM | > 133 µM | > 133 µM
C[C@]12C=CC(=O)C=C1CC[C@@H]1[C@@H]2[C@@H](O)C[C@@]2(C)[C@H]1CC[C@]2(O)C(=O)CO [PREDNISOLONE] | > 133 µM | > 133 µM | > 133 µM
CC(C)(C)NCC(O)c1ccc(O)c(CO)c1 (configuration not stated) [ALBUTEROL] | > 133 µM | > 133 µM | > 133 µM
C=C(CC)C(=O)c1ccc(OCC(=O)O)c(Cl)c1Cl [ETHACRYNIC ACID] | 3.85 µM | > 133 µM | 95.9 µM
O=c1[nH]cnc2c1ncn2[C@H]1CC[C@@H](CO)O1 [DIDANOSINE] | > 133 µM | > 133 µM | > 133 µM
Cc1ccc(Nc2c(F)cccc2Cl)c(CC(=O)O)c1 [LUMIRACOXIB] | > 133 µM | > 133 µM | > 133 µM
C[C@H](N[C@@H](CCc1ccccc1)C(=O)O)C(=O)N1CCC[C@H]1C(=O)O [ENALAPRILAT ANHYDROUS] | > 133 µM | > 133 µM | > 133 µM
